Test results taken from PMC6199309, “A therapeutic approach to pantothenate kinase associated neurodegeneration” (Nature Communications, 2018).

What was measured:
NEK9 = target: T1, NEK9 (Homo sapiens, UniProt Q8TD19); experiment: KINOMEscan; format: binding; conditions: read-out: %Ctrl @ 10000nM
T1 construct: purchased DiscoverX KINOMEscan

PLK2 = target: T2, PLK2 (Homo sapiens, UniProt Q9NYY3); experiment: KINOMEscan; format: binding; conditions: read-out: %Ctrl @ 10000nM
T2 construct: purchased DiscoverX KINOMEscan

MAP3K4 = target: T3, MAP3K4 (Homo sapiens, UniProt Q9Y6R4); experiment: KINOMEscan; format: binding; conditions: read-out: %Ctrl @ 10000nM
T3 construct: purchased DiscoverX KINOMEscan

[1] = target: T4, RSK4(Kin.Dom.2-C-terminal) (Homo sapiens, UniProt Q9UK32); experiment: KINOMEscan; format: binding; conditions: read-out: %Ctrl @ 10000nM
T4 construct: RSK4(Kin.Dom.2-C-terminal); purchased DiscoverX KINOMEscan

[2] = target: T5, RSK4(Kin.Dom.1-N-terminal) (Homo sapiens, UniProt Q9UK32); experiment: KINOMEscan; format: binding; conditions: read-out: %Ctrl @ 10000nM
T5 construct: RSK4(Kin.Dom.1-N-terminal); purchased DiscoverX KINOMEscan

SgK110 = target: T6, SgK110 (Homo sapiens, UniProt P0C264); experiment: KINOMEscan; format: binding; conditions: read-out: %Ctrl @ 10000nM
T6 construct: purchased DiscoverX KINOMEscan

IRAK4 = target: T7, IRAK4 (Homo sapiens, UniProt Q9NWZ3); experiment: KINOMEscan; format: binding; conditions: read-out: %Ctrl @ 10000nM
T7 construct: purchased DiscoverX KINOMEscan

CSF1R = target: T8, CSF1R (Homo sapiens, UniProt P07333); experiment: KINOMEscan; format: binding; conditions: read-out: %Ctrl @ 10000nM
T8 construct: purchased DiscoverX KINOMEscan

PIK3CA(E545K) = target: T9, PIK3CA(E545K) (Homo sapiens, UniProt P42336, E545K); experiment: KINOMEscan; format: binding; conditions: read-out: %Ctrl @ 10000nM
T9 construct: purchased DiscoverX KINOMEscan

PRKG2 = target: T10, PRKG2 (Homo sapiens, UniProt Q13237); experiment: KINOMEscan; format: binding; conditions: read-out: %Ctrl @ 10000nM
T10 construct: purchased DiscoverX KINOMEscan

CSNK1E = target: T11, CSNK1E (Homo sapiens, UniProt P49674); experiment: KINOMEscan; format: binding; conditions: read-out: %Ctrl @ 10000nM
T11 construct: purchased DiscoverX KINOMEscan

WNK4 = target: T12, WNK4 (Homo sapiens, UniProt Q96J92); experiment: KINOMEscan; format: binding; conditions: read-out: %Ctrl @ 10000nM
T12 construct: DNA label for qPCR (T7 phage fusion or DNA tag); purchased DiscoverX scanMAX; host or cells: E. coli BL21-derived (T7 phage) or HEK-293

FAK = target: T13, FAK (Homo sapiens, UniProt Q05397); experiment: KINOMEscan; format: binding; conditions: read-out: %Ctrl @ 10000nM
T13 construct: purchased DiscoverX KINOMEscan

OSR1 = target: T14, OSR1 (Homo sapiens, UniProt O95747); experiment: KINOMEscan; format: binding; conditions: read-out: %Ctrl @ 10000nM
T14 construct: purchased DiscoverX KINOMEscan

NEK2 = target: T15, NEK2 (Homo sapiens, UniProt P51955); experiment: KINOMEscan; format: binding; conditions: read-out: %Ctrl @ 10000nM
T15 construct: purchased DiscoverX KINOMEscan

NEK3 = target: T16, NEK3 (Homo sapiens, UniProt P51956); experiment: KINOMEscan; format: binding; conditions: read-out: %Ctrl @ 10000nM
T16 construct: purchased DiscoverX KINOMEscan

SGK2 = target: T17, SGK2 (Homo sapiens, UniProt Q9HBY8); experiment: KINOMEscan; format: binding; conditions: read-out: %Ctrl @ 10000nM
T17 construct: purchased DiscoverX KINOMEscan

FLT3-autoinhibited = target: T18, FLT3-autoinhibited (Homo sapiens, UniProt P36888); experiment: KINOMEscan; format: binding; conditions: read-out: %Ctrl @ 10000nM
T18 construct: purchased DiscoverX KINOMEscan

[3] = target: T19, EGFR(L747-E749del, A750P) (Homo sapiens, UniProt P00533, A750P/DEL747-749); experiment: KINOMEscan; format: binding; conditions: read-out: %Ctrl @ 10000nM
T19 construct: purchased DiscoverX KINOMEscan

[4] = target: T20, RSK1(Kin.Dom.1-N-terminal) (Homo sapiens, UniProt Q15418); experiment: KINOMEscan; format: binding; conditions: read-out: %Ctrl @ 10000nM
T20 construct: RSK1(Kin.Dom.1-N-terminal); purchased DiscoverX KINOMEscan

SBK1 = target: T21, SBK1 (Homo sapiens, UniProt Q52WX2); experiment: KINOMEscan; format: binding; conditions: read-out: %Ctrl @ 10000nM
T21 construct: purchased DiscoverX KINOMEscan

PRP4 = target: T22, PRP4 (Homo sapiens, UniProt Q13523); experiment: KINOMEscan; format: binding; conditions: read-out: %Ctrl @ 10000nM
T22 construct: purchased DiscoverX KINOMEscan

FYN = target: T23, FYN (Homo sapiens, UniProt P06241); experiment: KINOMEscan; format: binding; conditions: read-out: %Ctrl @ 10000nM
T23 construct: purchased DiscoverX KINOMEscan

ALK(L1196M) = target: T24, ALK(L1196M) (Homo sapiens, UniProt Q9UM73, L1196M); experiment: KINOMEscan; format: binding; conditions: read-out: %Ctrl @ 10000nM
T24 construct: purchased DiscoverX KINOMEscan

Protein binding = conditions: mouse
[5] = target: T25, JAK3(JH1domain-catalytic) (Homo sapiens, UniProt P52333); experiment: KINOMEscan; format: binding; conditions: read-out: %Ctrl @ 10000nM
T25 construct: JAK3(JH1domain-catalytic); purchased DiscoverX KINOMEscan

YANK3 = target: T26, YANK3 (Homo sapiens, UniProt Q86UX6); experiment: KINOMEscan; format: binding; conditions: read-out: %Ctrl @ 10000nM
T26 construct: purchased DiscoverX scanMAX; host or cells: E. coli BL21-derived host (T7 phage) or HEK-293

EGFR(E746-A750del) = target: T27, EGFR(E746-A750del) (Homo sapiens, UniProt P00533, DEL746-750); experiment: KINOMEscan; format: binding; conditions: read-out: %Ctrl @ 10000nM
T27 construct: purchased DiscoverX KINOMEscan

DAPK1 = target: T28, DAPK1 (Homo sapiens, UniProt P53355); experiment: KINOMEscan; format: binding; conditions: read-out: %Ctrl @ 10000nM
T28 construct: purchased DiscoverX KINOMEscan

KIT(A829P) = target: T29, KIT(A829P) (Homo sapiens, UniProt P10721, A829P); experiment: KINOMEscan; format: binding; conditions: read-out: %Ctrl @ 10000nM
T29 construct: purchased DiscoverX KINOMEscan

SIK = target: T30, SIK (Homo sapiens, UniProt P57059); experiment: KINOMEscan; format: binding; conditions: read-out: %Ctrl @ 10000nM
T30 construct: purchased DiscoverX KINOMEscan

MAP4K3 = target: T31, MAP4K3 (Homo sapiens, UniProt Q8IVH8); experiment: KINOMEscan; format: binding; conditions: read-out: %Ctrl @ 10000nM
T31 construct: purchased DiscoverX KINOMEscan

[6] = target: T32, ABL1(E255K)-phosphorylated (Homo sapiens, UniProt P00519, E255K); experiment: KINOMEscan; format: binding; conditions: read-out: %Ctrl @ 10000nM
T32 construct: purchased DiscoverX KINOMEscan

SNRK = target: T33, SNRK (Homo sapiens, UniProt Q9NRH2); experiment: KINOMEscan; format: binding; conditions: read-out: %Ctrl @ 10000nM
T33 construct: purchased DiscoverX KINOMEscan

CAMK4 = target: T34, CAMK4 (Homo sapiens, UniProt Q16566); experiment: KINOMEscan; format: binding; conditions: read-out: %Ctrl @ 10000nM
T34 construct: purchased DiscoverX KINOMEscan

KIT(V559D,V654A) = target: T35, KIT(V559D,V654A) (Homo sapiens, UniProt P10721, V559D/V654A); experiment: KINOMEscan; format: binding; conditions: read-out: %Ctrl @ 10000nM
T35 construct: purchased DiscoverX KINOMEscan

PIP5K1C = target: T36, PIP5K1C (Homo sapiens, UniProt O60331); experiment: KINOMEscan; format: binding; conditions: read-out: %Ctrl @ 10000nM
T36 construct: purchased DiscoverX KINOMEscan

Plasma stability = format: in vitro ADME; conditions: human, read-out: Plasma Stability T1/2
EPHB1 = target: T37, EPHB1 (Homo sapiens, UniProt P54762); experiment: KINOMEscan; format: binding; conditions: read-out: %Ctrl @ 10000nM
T37 construct: purchased DiscoverX KINOMEscan

T5 sequence (Q9UK32 1-400 limits assumed): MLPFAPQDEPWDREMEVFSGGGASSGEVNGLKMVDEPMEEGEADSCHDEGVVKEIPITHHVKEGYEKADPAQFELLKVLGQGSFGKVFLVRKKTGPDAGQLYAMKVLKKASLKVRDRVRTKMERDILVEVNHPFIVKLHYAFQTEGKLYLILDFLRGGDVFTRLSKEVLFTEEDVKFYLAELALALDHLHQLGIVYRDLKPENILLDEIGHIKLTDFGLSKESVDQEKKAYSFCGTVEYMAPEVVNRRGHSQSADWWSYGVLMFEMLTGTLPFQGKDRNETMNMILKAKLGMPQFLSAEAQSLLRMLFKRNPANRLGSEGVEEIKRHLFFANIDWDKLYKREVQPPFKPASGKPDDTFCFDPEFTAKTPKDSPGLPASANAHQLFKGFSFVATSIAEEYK
T8 sequence (P07333 20-972): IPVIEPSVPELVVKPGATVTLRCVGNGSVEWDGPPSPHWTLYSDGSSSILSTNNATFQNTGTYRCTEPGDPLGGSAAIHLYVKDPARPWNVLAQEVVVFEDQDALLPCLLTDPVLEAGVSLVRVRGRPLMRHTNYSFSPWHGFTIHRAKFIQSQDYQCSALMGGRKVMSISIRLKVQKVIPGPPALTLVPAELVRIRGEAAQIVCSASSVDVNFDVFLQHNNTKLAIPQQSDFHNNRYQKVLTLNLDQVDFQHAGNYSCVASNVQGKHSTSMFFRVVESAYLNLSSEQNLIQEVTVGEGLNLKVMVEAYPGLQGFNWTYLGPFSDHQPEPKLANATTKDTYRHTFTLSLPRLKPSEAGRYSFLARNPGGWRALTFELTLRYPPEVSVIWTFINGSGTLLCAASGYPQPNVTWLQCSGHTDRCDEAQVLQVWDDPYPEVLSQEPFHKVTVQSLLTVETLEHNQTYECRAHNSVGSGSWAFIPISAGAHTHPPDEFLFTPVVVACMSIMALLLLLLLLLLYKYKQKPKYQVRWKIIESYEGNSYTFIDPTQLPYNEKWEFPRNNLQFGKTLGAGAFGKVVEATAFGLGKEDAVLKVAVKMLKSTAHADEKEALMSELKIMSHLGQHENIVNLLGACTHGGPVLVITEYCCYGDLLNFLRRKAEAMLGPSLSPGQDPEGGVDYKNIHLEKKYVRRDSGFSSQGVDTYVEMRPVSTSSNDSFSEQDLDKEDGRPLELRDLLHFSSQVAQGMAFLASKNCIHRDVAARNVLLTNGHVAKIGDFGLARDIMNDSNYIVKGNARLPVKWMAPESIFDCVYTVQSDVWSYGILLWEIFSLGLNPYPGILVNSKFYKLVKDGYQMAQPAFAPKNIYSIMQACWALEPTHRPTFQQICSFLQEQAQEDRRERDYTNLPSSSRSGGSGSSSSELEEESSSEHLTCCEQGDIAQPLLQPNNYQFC
T2 sequence (Q9NYY3 whole entry): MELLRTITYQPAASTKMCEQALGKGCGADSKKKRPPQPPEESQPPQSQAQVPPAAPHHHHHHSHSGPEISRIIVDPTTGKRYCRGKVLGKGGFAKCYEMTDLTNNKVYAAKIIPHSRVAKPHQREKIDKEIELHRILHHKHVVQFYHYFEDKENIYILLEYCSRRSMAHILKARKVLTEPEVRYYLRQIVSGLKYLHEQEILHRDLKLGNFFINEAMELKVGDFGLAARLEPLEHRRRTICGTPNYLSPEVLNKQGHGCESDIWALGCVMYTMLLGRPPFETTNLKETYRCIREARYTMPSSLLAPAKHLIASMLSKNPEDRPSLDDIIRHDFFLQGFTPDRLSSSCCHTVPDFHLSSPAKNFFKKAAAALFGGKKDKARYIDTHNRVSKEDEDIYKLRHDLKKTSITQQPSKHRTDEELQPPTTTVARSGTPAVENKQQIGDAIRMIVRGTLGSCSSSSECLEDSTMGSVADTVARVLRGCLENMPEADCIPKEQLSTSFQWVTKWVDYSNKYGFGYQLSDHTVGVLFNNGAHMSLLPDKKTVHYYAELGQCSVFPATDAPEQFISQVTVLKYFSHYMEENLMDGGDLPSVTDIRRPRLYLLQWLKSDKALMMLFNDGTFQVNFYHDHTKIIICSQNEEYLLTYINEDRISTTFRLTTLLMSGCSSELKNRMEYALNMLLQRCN
T7 sequence (Q9NWZ3 whole entry): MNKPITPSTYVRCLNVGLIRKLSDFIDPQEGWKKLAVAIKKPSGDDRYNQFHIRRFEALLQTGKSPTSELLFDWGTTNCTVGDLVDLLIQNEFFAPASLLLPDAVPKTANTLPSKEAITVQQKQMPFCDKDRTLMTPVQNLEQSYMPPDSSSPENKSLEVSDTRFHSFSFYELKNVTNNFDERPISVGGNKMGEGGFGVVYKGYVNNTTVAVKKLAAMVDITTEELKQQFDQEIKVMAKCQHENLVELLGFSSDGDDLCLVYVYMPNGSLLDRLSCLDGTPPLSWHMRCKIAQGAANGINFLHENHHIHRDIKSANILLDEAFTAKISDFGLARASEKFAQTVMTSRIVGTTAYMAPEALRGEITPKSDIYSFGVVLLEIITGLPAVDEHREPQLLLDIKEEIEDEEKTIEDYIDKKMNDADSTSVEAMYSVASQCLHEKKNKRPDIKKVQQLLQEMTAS
T1 sequence (Q8TD19 whole entry): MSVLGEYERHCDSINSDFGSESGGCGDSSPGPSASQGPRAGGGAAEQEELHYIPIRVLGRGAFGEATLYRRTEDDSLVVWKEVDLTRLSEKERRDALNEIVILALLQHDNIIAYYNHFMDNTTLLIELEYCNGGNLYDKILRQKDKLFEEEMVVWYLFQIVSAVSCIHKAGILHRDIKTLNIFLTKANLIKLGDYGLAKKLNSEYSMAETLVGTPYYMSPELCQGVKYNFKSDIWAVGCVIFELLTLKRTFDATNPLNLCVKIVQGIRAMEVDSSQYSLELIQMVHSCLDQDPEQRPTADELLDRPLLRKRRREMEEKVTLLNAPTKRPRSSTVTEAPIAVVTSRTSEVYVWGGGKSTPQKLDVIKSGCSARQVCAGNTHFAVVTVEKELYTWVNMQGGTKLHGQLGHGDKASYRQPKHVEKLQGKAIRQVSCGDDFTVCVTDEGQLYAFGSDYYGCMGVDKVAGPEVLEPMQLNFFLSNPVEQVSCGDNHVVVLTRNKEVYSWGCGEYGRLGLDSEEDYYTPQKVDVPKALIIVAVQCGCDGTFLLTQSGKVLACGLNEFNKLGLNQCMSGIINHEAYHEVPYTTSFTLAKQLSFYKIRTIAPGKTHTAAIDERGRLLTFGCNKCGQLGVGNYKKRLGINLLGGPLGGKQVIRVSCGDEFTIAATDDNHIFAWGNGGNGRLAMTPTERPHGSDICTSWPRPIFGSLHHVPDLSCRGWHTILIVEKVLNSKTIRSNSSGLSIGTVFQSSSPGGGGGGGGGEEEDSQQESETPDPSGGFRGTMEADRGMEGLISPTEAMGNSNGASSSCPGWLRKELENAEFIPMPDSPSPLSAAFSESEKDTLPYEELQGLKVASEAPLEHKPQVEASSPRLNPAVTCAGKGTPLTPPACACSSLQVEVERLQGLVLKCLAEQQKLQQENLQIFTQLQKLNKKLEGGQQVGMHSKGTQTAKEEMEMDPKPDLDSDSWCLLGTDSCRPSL
T15 sequence (P51955 whole entry): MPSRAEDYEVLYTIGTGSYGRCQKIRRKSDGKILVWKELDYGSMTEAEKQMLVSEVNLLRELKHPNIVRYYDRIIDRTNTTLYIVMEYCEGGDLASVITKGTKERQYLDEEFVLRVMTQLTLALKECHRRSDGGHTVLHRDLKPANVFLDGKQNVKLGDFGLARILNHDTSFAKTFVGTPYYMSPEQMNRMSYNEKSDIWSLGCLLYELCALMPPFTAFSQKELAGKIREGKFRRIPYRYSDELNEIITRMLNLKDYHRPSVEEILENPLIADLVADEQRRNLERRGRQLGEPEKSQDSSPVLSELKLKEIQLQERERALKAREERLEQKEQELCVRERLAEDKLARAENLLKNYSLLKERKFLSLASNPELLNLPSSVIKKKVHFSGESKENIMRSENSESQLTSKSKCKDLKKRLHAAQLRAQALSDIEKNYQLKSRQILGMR
T31 sequence (Q8IVH8 whole entry): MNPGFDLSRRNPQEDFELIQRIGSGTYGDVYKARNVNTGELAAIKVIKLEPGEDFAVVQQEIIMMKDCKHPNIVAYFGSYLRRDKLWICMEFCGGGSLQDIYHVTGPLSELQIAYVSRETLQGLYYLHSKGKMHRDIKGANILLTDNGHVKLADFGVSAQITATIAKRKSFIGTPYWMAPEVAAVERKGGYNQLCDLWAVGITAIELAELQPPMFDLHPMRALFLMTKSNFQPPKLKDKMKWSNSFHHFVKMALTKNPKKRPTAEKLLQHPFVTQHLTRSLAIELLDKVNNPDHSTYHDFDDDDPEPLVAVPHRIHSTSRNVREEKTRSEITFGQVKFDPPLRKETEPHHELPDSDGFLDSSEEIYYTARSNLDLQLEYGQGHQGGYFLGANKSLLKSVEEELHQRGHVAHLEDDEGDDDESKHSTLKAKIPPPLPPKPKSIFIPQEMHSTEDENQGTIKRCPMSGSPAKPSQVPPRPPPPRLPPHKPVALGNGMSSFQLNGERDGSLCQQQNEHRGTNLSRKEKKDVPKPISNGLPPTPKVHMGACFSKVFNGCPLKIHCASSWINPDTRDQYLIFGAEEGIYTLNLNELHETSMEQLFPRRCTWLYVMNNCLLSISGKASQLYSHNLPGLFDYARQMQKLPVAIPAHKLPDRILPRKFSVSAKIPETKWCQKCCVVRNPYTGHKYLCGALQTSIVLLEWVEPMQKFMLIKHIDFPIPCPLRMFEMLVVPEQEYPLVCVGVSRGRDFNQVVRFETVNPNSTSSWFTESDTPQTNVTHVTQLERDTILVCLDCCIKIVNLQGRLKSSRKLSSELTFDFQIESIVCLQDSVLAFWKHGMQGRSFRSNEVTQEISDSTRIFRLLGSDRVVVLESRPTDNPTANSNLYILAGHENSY

SMILES: CC(C)c1ccc(CC(=O)N2CCN(c3ccc(C#N)nn3)CC2)cc1 [PZ-2891, 6-(4-(2-(4-isopropylphenyl)acetyl)piperazin-1-yl)pyridazine-3-carbonitrile]
- remaining binding at 10 µM (NEK9): 96%
- remaining binding at 10 µM (PLK2): 84%
- remaining binding at 10 µM (MAP3K4): 93%
- remaining binding at 10 µM [1]: 71%
- remaining binding at 10 µM [2]: 97%
- remaining binding at 10 µM (SgK110): 94%
- remaining binding at 10 µM (IRAK4): 93%
- remaining binding at 10 µM (CSF1R): 91%
- remaining binding at 10 µM (PIK3CA(E545K)): 65%
- remaining binding at 10 µM (PRKG2): 76%
- remaining binding at 10 µM (CSNK1E): 97%
- remaining binding at 10 µM (WNK4): 69%
- remaining binding at 10 µM (FAK): 89%
- remaining binding at 10 µM (OSR1): 87%
- remaining binding at 10 µM (NEK2): 88%
- remaining binding at 10 µM (NEK3): 69%
- remaining binding at 10 µM (SGK2): 64%
- remaining binding at 10 µM (FLT3-autoinhibited): 82%
- remaining binding at 10 µM [3]: 72%
- remaining binding at 10 µM [4]: 100%
- remaining binding at 10 µM (SBK1): 62%
- remaining binding at 10 µM (PRP4): 86%
- remaining binding at 10 µM (FYN): 87%
- remaining binding at 10 µM (ALK(L1196M)): 73%
- fraction unbound (Protein binding): 0.08
- remaining binding at 10 µM [5]: 94%
- remaining binding at 10 µM (YANK3): 84%
- remaining binding at 10 µM (EGFR(E746-A750del)): 100%
- remaining binding at 10 µM (DAPK1): 63%
- remaining binding at 10 µM (KIT(A829P)): 91%
- remaining binding at 10 µM (SIK): 83%
- remaining binding at 10 µM (MAP4K3): 94%
- remaining binding at 10 µM [6]: 53%
- remaining binding at 10 µM (SNRK): 85%
- remaining binding at 10 µM (CAMK4): 89%
- remaining binding at 10 µM (KIT(V559D,V654A)): 73%
- remaining binding at 10 µM (PIP5K1C): 100%
- half-life (Plasma stability): > 50 h
- remaining binding at 10 µM (EPHB1): 90%
